# Measured values: ChEMBL document CHEMBL3872260, “Influence of chain length on the activity of tripeptidomimetic antagonists for CXC chemokine receptor 4 (CXCR4)” (Bioorg Med Chem, 2017)
# Target: C-X-C chemokine receptor type 4 (Homo sapiens, UniProt P61073)
# Assay: Antagonist activity at wild-type human CXCR4 expressed in COS7 cells co-expressing chimeric galphai assessed as inhibition of CXCL12-induced [3H]inositol-phosphate accumulation measured after 90 mins in presence of Myo-[2-3H]-inositol by scintillation proximity assay
# Type: functional, cell-based, COS-7
# Sequence of C-X-C chemokine receptor type 4 (P61073 whole entry): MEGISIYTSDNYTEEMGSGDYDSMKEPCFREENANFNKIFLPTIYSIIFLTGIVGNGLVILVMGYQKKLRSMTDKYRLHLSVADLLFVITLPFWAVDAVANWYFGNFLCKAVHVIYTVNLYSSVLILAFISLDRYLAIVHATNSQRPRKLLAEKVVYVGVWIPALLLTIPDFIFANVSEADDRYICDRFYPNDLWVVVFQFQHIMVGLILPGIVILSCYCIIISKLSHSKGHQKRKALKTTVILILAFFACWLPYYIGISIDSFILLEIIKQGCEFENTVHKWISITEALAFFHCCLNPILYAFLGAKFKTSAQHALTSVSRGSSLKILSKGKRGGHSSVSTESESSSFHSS
Compound,EC50 (read-out: EC50) [µM],EC50 (read-out: pEC50 (converted)) [µM]
N=C(N)NCCCC[C@H]1C(=O)N(CCc2ccc3ccccc3c2)C[C@@H]2SC[C@H](CCNC(=N)N)C(=O)N21,> 100,< 100
N=C(N)NCCCC1CSC2CN(Cc3ccc4ccccc4c3Br)C(=O)[C@H](CCCNC(=N)N)N2C1=O (mixture of isomers),61,–
N=C(N)NCCC[C@H]1C(=O)N(CCc2ccc3ccccc3c2)C[C@H]2SC[C@@H](CCNC(=N)N)C(=O)N21,> 100,–
N=C(N)NCCCC[C@@H]1CS[C@@H]2CN(CCc3ccc4ccccc4c3)C(=O)[C@H](CCCNC(=N)N)N2C1=O,> 100,< 100
N=C(N)NCCCC[C@H]1C(=O)N(CCc2ccc3ccccc3c2)C[C@H]2SC[C@@H](CCNC(=N)N)C(=O)N21,> 100,< 100
N=C(N)NCCCC[C@H]1CS[C@H]2CN(CCc3ccc4ccccc4c3)C(=O)[C@H](CCCNC(=N)N)N2C1=O,> 100,< 100
N=C(N)NCCC[C@H]1C(=O)N(CCc2ccc3ccccc3c2)C[C@@H]2SC[C@H](CCNC(=N)N)C(=O)N21,> 100,< 100
N=C(N)NCCCC[C@H]1C(=O)N(CCc2ccc3ccccc3c2)C[C@H]2SC[C@@H](CCCNC(=N)N)C(=O)N21,> 100,< 100
N=C(N)NCCCC1CSC2CN(Cc3ccc4ccccc4c3)C(=O)[C@H](CCCNC(=N)N)N2C1=O (mixture of isomers),> 100,< 100
N=C(N)NCCCC[C@H]1C(=O)N(CCc2ccc3ccccc3c2)C[C@@H]2SC[C@H](CCCNC(=N)N)C(=O)N21,> 100,–
N=C(N)NCCCC1CSC2CN(Cc3cccc4ccccc34)C(=O)[C@H](CCCNC(=N)N)N2C1=O (mixture of isomers),> 100,–
